No end group written: not given here.
How the values were obtained:
αWD40 domain (α-COPI) = target: T1, αWD40 domain (α-COPI) (Schizosaccharomyces pombe, UniProt Q96WV5); experiment: Biolayer interferometry (BLI) of S tail peptides with wild-type αWD40; assay type: binding, S. pombe
T1 construct: strep-tag (C); made in house; host or cells: Expi293 cells
T1 sequence (Q96WV5 1-327 limits assumed): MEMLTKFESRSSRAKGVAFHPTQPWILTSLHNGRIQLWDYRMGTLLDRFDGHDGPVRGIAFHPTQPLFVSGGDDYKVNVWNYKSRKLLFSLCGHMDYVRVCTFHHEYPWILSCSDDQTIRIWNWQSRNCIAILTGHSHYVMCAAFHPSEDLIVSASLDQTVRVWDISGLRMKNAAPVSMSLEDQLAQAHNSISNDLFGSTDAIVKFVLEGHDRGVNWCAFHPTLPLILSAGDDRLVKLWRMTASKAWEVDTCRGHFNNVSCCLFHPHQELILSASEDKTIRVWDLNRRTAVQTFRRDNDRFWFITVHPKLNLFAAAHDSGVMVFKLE
Experimental: Recombinant expression and purification of S. pombe αWD40 and S. cerevisiae β‘WD40 domains (both wild type and mutants) were carried out as described[43],[72],[75]. Briefly, αWD40 with a C-terminal strep-tag was expressed and purified from Expi293 cells using polyethyleneimine (PEI). The clarified cell lysate was subjected to affinity chromatography followed by size-exclusion chromatography (SEC) on a preparative grade Superdex-75 column.
BLI assays with biotinylated S peptides from Biomatik (USA) and purified coatomer WD40 domains were carried out as described. […] S peptides were immobilized on streptavidin (SA) biosensors (FortéBio, USA). Measurements were performed on the Octet RED96 system (FortéBio, USA). Data acquisition and data analysis were performed using Data Acquisition 11.1 suite and FortéBio Data Analysis 11.1 software suite respectively. All experiments were performed at 25 °C and 1000 rpm shake speed. Appropriate sensor and loading controls were applied.

yeast αWD40 domain = details: published value, Supplementary Table S6; ref Ma & Goldberg, EMBO J 2013; cited from earlier work
yeast β'WD40 domain = details: published value, Supplementary Table S6; ref Ma & Goldberg, EMBO J 2013; cited from earlier work
WD40 = details: peer review response; ref Dey et al Communications Biology 2022; cited from earlier work
Excerpt: page 26: dynamics/conformations of the tail. I see no need to perform experiments, but maybe this has been done (or other mutants been tested meanwhile)? Please comment at least! Response 3.21: We thank the reviewer for raising this point. We reported this BLI experiment in our previous publication, Dey et al Communications Biology 2022. […]

[1] = target: T2, alpha-COP WD40 (Schizosaccharomyces pombe), Q96WV5; details: modification not given
T2 chain: T1 sequence (Q96WV5 1-327 limits assumed)

[2] = immobilized biotinylated peptide, αWD40 analyte, pH 6.5, 25 °C
[3] = immobilized biotinylated peptide, αWD40 analyte, pH 7.0, 25 °C

CC(C)C[C@H](NC(=O)[C@H](CCCCN)NC(=O)[C@@H](NC(=O)CNC(=O)[C@H](CCCCN)NC(=O)[C@H](CC(C)C)NC(=O)[C@@H](NC(=O)[C@@H]1CCCN1C(=O)[C@H](CCC(=O)O)NC(=O)[C@H](CO)NC(=O)[C@H](CC(=O)O)NC(=O)[C@H](CC(=O)O)NC(=O)[C@H](CCC(=O)O)NC(=O)[C@H](CC(=O)O)NC(=O)[C@H](Cc1ccccc1)NC(=O)[C@H](CCCCN)NC(=O)[C@H](CS)NC(=O)[C@H](CS)NC(=O)CCCC[C@@H]1SC[C@@H]2NC(=O)N[C@@H]21)C(C)C)C(C)C)C(=O)N[C@@H](Cc1c[nH]cn1)C(=O)N[C@@H](Cc1ccc(O)cc1)C(=O)N[C@@H](CCC(=O)O)C(=O)O
Kd (αWD40 domain (α-COPI); Equilibrium KD, immobilized biotinylated peptide, αWD40 analyte, pH 7.0, 25 °C): 0.1 ± 0.002 µM | koff (αWD40 domain (α-COPI); [2]): 0.0037 ± 0.0002 s⁻¹ | kon (αWD40 domain (α-COPI); [2]): 59.9 ± 1.3 10^3/Ms | koff (αWD40 domain (α-COPI); [3]): 0.003 ± 0.0002 s⁻¹ | kon (αWD40 domain (α-COPI); [3]): 60.8 ± 1.3 10^3/Ms

GVKLHYE-NH2 [GVKLHYE (amidated)]
koff (αWD40 domain (α-COPI); [2]): 0.88 ± 0.02 s⁻¹ | kon (αWD40 domain (α-COPI); [2]): 706.2 ± 56.3 10^3/Ms

R-R-S-F-I-D-E-K-K-M-P (RRSFIDEKKMP)
Kd (yeast αWD40 domain): 64.5 ± 5.4 µM | Kd (yeast β'WD40 domain): 49 ± 2.2 µM

GVKLHYA
WD40 binding in BLI assays (in words) (WD40): modest enhancement

GVKLHYT (amidated)
binding to αWD40 (in words) (αWD40 domain (α-COPI); Fig. 2M, listed as amidated wild-type S heptapeptide): Loss of αWD40 binding

GVKLHYT [Spike tail heptapeptide]
Kd [1]: 1.4 µM
